One test concerns the target T1, rat bone TRAP (Rattus norvegicus, UniProt P29288).
T1 construct: from tissue; host or cells: long bones of 3 week old Sprague Dawley rats
T1 sequence (P29288 23-327): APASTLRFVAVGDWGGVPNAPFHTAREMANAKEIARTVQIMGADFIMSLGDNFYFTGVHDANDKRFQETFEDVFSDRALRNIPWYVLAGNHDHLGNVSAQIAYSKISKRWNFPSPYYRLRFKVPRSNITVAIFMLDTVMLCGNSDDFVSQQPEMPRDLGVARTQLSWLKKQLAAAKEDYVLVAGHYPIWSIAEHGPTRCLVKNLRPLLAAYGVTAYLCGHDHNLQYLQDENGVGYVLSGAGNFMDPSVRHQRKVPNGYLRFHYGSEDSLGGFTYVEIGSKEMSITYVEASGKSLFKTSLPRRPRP
T1 sequence (P29288 184-327): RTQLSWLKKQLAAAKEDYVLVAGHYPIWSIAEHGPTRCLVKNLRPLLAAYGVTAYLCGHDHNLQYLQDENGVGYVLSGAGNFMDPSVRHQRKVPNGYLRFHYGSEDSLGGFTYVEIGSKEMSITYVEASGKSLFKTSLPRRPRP
The experiment in a line: Preincubation with reducing agents, bone TRAP. The class given is biochemical. The protocol: (§1) P-nitrophenylphosphosphatase activity was assayed in 96-well plates using the p-nitrophenylphosphate (pNPP) as substrate in the incubation medium (150 μl) containing (final concentrations); 10 mM pNPP, 0.1 M sodium acetate pH 5.8, 0.15 M KCl, 0.1% Triton X-100, 10 mM sodium tartrate, 1 mM ascorbic acid and 0.1 mM FeCl3. The p-nitrophenol liberated after 1 hour of incubation at 37° C. was converted into p-nitrophenylate by the addition of 100 μl of 0.3 M NaOH, and the absorbance was read at 405 nm. For absorbance reading a Spectramax 250 spectrophotometer (Molecular Devices, Sunnyvale, Calif.) was used.
(§2) c) BaculoTRAP digested with papain or trypsin were compared with undigested baculoTRAP and bone TRAP. Ascorbic acid and FeCl3 were used as reducing agents during preincubation of TRAP for indicated time intervals in a total volume of 70 μl with (final concentrations); 1 mM ascorbic acid, 0.1 mM FeCl3, 0.15 M KCl, 10 mM sodium tartrate, 0.1% Triton X-100. Except for a substrate incubation time of 10 min, TRAP activity was measured after the addition of 80 μl of substrate solution as described under Materials and Methods.

In test [1] the target is T2, intact recombinant TRAP (baculoTRAP) (Rattus norvegicus, UniProt P29288).
T2 construct: made in house
T2 sequence (P29288 23-327): T1 sequence (P29288 23-327)
The experiment in a line: Preincubation with reducing agents, intact recombinant TRAP. Particulars: ascorbate 1 mM in the presence of 0.1 mM FeCl3. The test is classed as biochemical. The protocol:
as §1, §2

A further test has as its target T3, BacTRAP + papain (Rattus norvegicus, UniProt P29288).
T3 construct: made in house; host or cells: recombinant Baculovirus-infected cells; then digested with papain-agarose
T3 sequence (P29288 23-327): T1 sequence (P29288 23-327)
T3 sequence (P29288 184-327): T1 sequence (P29288 184-327)
Nature of the test: pNPP hydrolysis by papain-digested recombinant TRAP. The class given is biochemical. The protocol: as §1
(§3) 1 U of p-nitrophenylphosphatase activity corresponds to 1 μmole of p-nitrophenol liberated per minute at 37° C. […] The substrates were dissolved in incubation medium containing the same buffer as in the pNPP-assay. After 1 hour of incubation (final volume 50 μl) at 37° C. the assay was stopped by addition of 50 μl of color reagens (0.12% Malachite-green in 3 M H2SO4/7.5% ammomium molybdate/11% Tween-20; 10:2.5:0.2). A phosphate standard curve […] was always run in parallel. After color development for 10 min the absorbance at 630 nm was measured using a Spectramax 250 spectrophotometer.
Proteolytic Digestion of TRAP 25 μg baculoTRAP or bone TRAP were digested with […] papain-agarose in 500 μl of incubation solution; 10 mM sodium acetate, pH 4.6, 0.1% Triton X-100 and 2 mM DTT. Incubation was performed at room temperature for 24 h, with constant mixing of the gel. 25 μg baculo TRAP or bone TRAP were digested with 100 μl (5units) trypsin-agarose in 500 μl of incubation solution; 10 mM Tris pH 7.0 and 0.1% Triton X-100.
Incubation was performed at room temperature for 1 h with the suspension kept well mixed during the reaction period. The proteolytic digestions above were stopped by centrifugation and the cleavage products of TRAP in the supernatant were further analyzed. Digestion of baculo TRAP or bone TRAP with cathepsin B were performed at (final concentrations); 10 ng TRAP/μl, 0.4 mU cathepsin B/μl, 2 mM DTT, 50 mM sodium acetate and 1 mM EDTA, pH 5.5. The incubations were performed at 37° C. for 24 h and digestions were stopped with protease inhibitor cocktail Complete according to the instructions of the manufacturer.

A further test deals with BacTRAP + trypsin. The experiment in a line: pNPP hydrolysis by trypsin-digested recombinant TRAP. The test is classed as biochemical, rat. The protocol:
as §1
1 U of p-nitrophenylphosphatase activity corresponds to 1 μmole of p-nitrophenol liberated per minute at 37° C. […] The substrates were dissolved in incubation medium containing the same buffer as in the pNPP-assay. After 1 hour of incubation (final volume 50 μl) at 37° C. the assay was stopped by addition of 50 μl of color reagens (0.12% Malachite-green in 3 M H2SO4/7.5% ammomium molybdate/11% Tween-20; 10:2.5:0.2). […] After color development for 10 min the absorbance at 630 nm was measured using a Spectramax 250 spectrophotometer. […]
(§4) Incubation was performed at room temperature for 1 h with the suspension kept well mixed during the reaction period. The proteolytic digestions above were stopped by centrifugation and the cleavage products of TRAP in the supernatant were further analyzed. […]

The next test addresses T4, BoneTRAP (Rattus norvegicus, UniProt P29288).
T4 construct: from tissue; host or cells: long bones of 3 week old Sprague Dawley rats
T4 sequence (P29288 23-327): T1 sequence (P29288 23-327)
T4 sequence (P29288 184-327): T1 sequence (P29288 184-327)
Nature of the test: pNPP hydrolysis by bone TRAP. The test is classed as biochemical. Particulars: BoneTRAP untreated. The protocol:
Bone TRAP was purified from the long bones of 40 3 week old Sprague Dawley rats. All operations were performed at 4° C. The dissected bones, free from soft tissue, were cut into small pieces and placed in homogenization solution with protease inhibitors (3 ml/g bone); 0.15 M KCl, 0.1% Triton X-100, Pefabloc (1 mg/ml), Pepstatin A (10 μg/ml), E-64 (10 μg/ml) and 5 mM EDTA. A Polytron homogenizer (Brinkman Instruments Westbury, N.Y.) was used for homogenization during 10 seconds, with 1 minute intervals, until a homogenous suspension was achieved. The homogenate was cleared by centrifugation at 3,200×g for 30 min. 5 % protamine sulfate was added dropwise to the supernatant during continous stirring to a final concentration of 0.5%, with further stirring for 30 min. […]
as §1, with “used. […]” for “used.”

In the next test the test system is BacTRAP + Cath. B. Nature of the test: pNPP hydrolysis by cathepsin B-digested recombinant TRAP. The test is classed as biochemical, rat. Here is the method: as §1
1 U of p-nitrophenylphosphatase activity corresponds to 1 μmole of p-nitrophenol liberated per minute at 37° C. […] The substrates were dissolved in incubation medium containing the same buffer as in the pNPP-assay. After 1 hour of incubation (final volume 50 μl) at 37° C. the assay was stopped by addition of 50 μl of color reagens (0.12% Malachite-green in 3 M H2SO4/7.5% ammomium molybdate/11% Tween-20; 10:2.5:0.2). […] After color development for 10 min the absorbance at 630 nm was measured using a Spectramax 250 spectrophotometer.
as §4

In test [2] the target is T5, TRAP isolated from rat bone (BoneTRAP) (Rattus norvegicus, UniProt P29288).
T5 construct: from tissue; host or cells: long bones of 3 week old Sprague Dawley rats
T5 sequence (P29288 23-327): T1 sequence (P29288 23-327)
T5 sequence (P29288 184-327): T1 sequence (P29288 184-327)
Nature of the test: Substrate specificity of bone TRAP (phosphatase assay). The test is classed as biochemical. Particulars: for Ratio Bone/Bac: Kcat/Km BoneTRAP over BacTRAP. Here is the method:
(§5) The substrates were dissolved in incubation medium containing the same buffer as in the pNPP-assay. […] A phosphate standard curve […] was always run in parallel. […] In order to validate whether the structural alterations induced by proteolytic cleavage of the monomeric TRAP was generally affecting known substrates for TRAP and not restricted to the non-physiological substrate pNPP, we surveyed a number of different phosphoaminoacids, phosphopeptides and the phosphoprotein osteopontin as substrates for the TRAPs (See Table II).

Test [3] addresses T6, recombinant rat TRAP produced using Baculovirus expression system (BacTRAP) (Rattus norvegicus, UniProt P29288).
T6 construct: made in house
T6 sequence (P29288 23-327): T1 sequence (P29288 23-327)
Nature of the test: Substrate specificity of recombinant TRAP (phosphatase assay). The test is classed as biochemical. Here is the method:
as §5

For test [4], the target named is T7, recombinant rat TRAP (BacTRAP) (Rattus norvegicus, UniProt P29288).
T7 construct: made in house
T7 sequence (P29288 23-327): T1 sequence (P29288 23-327)
The experiment in a line: pNPP hydrolysis by untreated recombinant TRAP. The class given is biochemical. The protocol: as §1, §3

Setting [5] is: Kcat/Km relative to pT = 1.0, BoneTRAP.
Where [6] appears, read: Kcat/Km relative to pT = 1.0, BacTRAP.

These results are taken from patent publication US6451548B1, “Methods for screening for specific inhibitors of trap and identifying compounds for treatment of diseases or conditions resulting in increased bone resorption using activated TRAP” (Biovitrum AB, priority 1998, dated 2002).

Where two headings read alike, the source gives them in different places. Where no end group is shown, it is not given here. [ ]: non-standard residue; d: D form. pY = N[C@@H](Cc1ccc(OP(=O)(O)O)cc1)C(=O)O; pT = C[C@@H](OP(=O)(O)O)[C@H](N)C(=O)O; pS = N[C@@H](COP(=O)(O)O)C(=O)O Bounds are passed on as bounds.

In general, Km refers to the concentration of substrate that gives half-maximal velocity.

In the case of `O=C1O[C@H]([C@@H](O)CO)C(O)=C1O` [ascorbate, ascorbic acid], the figures for the “effect of prolonged pre-incubation on TRAP activity” value (on rat bone TRAP (ascorbate 1 mM in the presence of 0.1 mM FeCl3); in test [1]) were “time-dependent inactivation” and “did not show this tendency for inactivation”, respectively. In addition, the “time to maximal activation” value on rat bone TRAP (pre-incubation with ascorbate 1 mM, 0.1 mM FeCl3) was no more than 10 min.

Regarding `O=[N+]([O-])c1ccc(OP(=O)(O)O)cc1` [pNPP, p-nitrophenylphosphate], the Km is 1 mM on BacTRAP + papain (pNPP hydrolysis, BacTRAP + papain); 2.1 mM with BacTRAP + trypsin; 1 mM at BoneTRAP; 900 µM in the test with BacTRAP + Cath. B; 3.1 mM in test [4] (pNPP hydrolysis, BacTRAP untreated). For the same compound, the “increase in the ratio kcat/Km” value on BacTRAP + papain (papain-cleaved recombinant TRAP compared to untreated monomeric TRAP) was 10 fold. At BacTRAP + papain (papain-cleaved vs untreated recombinant TRAP), the “decrease in the Km for pNPP” value turned out to be 3 fold. For the same compound, the “optimal pH of pNPP hydrolysis” value at BacTRAP + papain (recombinant TRAP cleaved with papain) is recorded as 5.5-6.0 pH. In test [2], the “Ratio (BoneTRAP)” value was 690. For the same compound, the “Ratio Bone/Bac” value in [2] amounted to 8.8. The “Ratio (BacTRAP)” value in test [3] stood at 1075. Further, the “pH-optimum of pNPP hydrolysis” value in test [4] (recombinant TRAP as isolated) was 4.5-5.0 pH.

For the compound `N[C@@H](COP(=O)(O)O)C(=O)O` [pS, phosphoserine], in test [2], the “Ratio Bone/Bac” value is listed as 22. Besides, the “Ratio (BoneTRAP)” value in test [2] (setting [5]) is reported as 2.0. Further, in test [3] (setting [6]), the “Ratio (BacTRAP)” value was found to be 1.2.

In the case of `C[C@@H](OP(=O)(O)O)[C@H](N)C(=O)O` [pT, Phosphothreonine], the “Ratio Bone/Bac” value in test [2] was found to be 14. In addition, in [2] (setting [5]), the “Ratio (BoneTRAP)” value was 1.0. In addition, the “Ratio (BacTRAP)” value in [3] (setting [6]) was found to be 1.0.

Turning to `N[C@@H](Cc1ccc(OP(=O)(O)O)cc1)C(=O)O` [pY, phosphotyrosine], the “Ratio Bone/Bac” value in test [2] is recorded as 19. Besides, the “Ratio (BoneTRAP)” value in test [2] (setting [5]) came out at 350. For the same compound, the “Ratio (BacTRAP)” value in test [3] (setting [6]) was 250.

As for DADE(pY)LIPQQG, the “Ratio Bone/Bac” value in test [2] is on record as 18. Besides, the “Ratio (BoneTRAP)” value in test [2] (setting [5]) is given as 640. The “Ratio (BacTRAP)” value in test [3] (setting [6]) turned out to be 475.

Take EDEE[pS]EDEE: in [2], the “Ratio Bone/Bac” value is 4.2. The “Ratio (BoneTRAP)” value in test [2] (setting [5]) is 15. In [3] (setting [6]), the “Ratio (BacTRAP)” value came out at 50.

Turning to END[pY]INASL, the “Ratio Bone/Bac” value in [2] worked out at 10. For the same compound, in test [2] (setting [5]), the “Ratio (BoneTRAP)” value is on record as 280. Besides, the “Ratio (BacTRAP)” value in [3] (setting [6]) is on record as 375.

Regarding FRI[pS]HELDS, in test [2], the “Ratio Bone/Bac” value is 15. Further, the “Ratio (BoneTRAP)” value in test [2] (setting [5]) stood at 15. Also, the “Ratio (BacTRAP)” value in test [3] (setting [6]) is recorded as 14.

Consider “OPN: acidic phospho-seryl protein osteopontin purified from bovine milk”, for which the “Ratio Bone/Bac” value in test [2] is 17. Moreover, in test [2] (setting [5]), the “Ratio (BoneTRAP)” value was determined as 2360. In addition, the “Ratio (BacTRAP)” value in [3] (setting [6]) is 1875.

Consider RRA[pT]VA, for which, in test [2], the “Ratio Bone/Bac” value stood at 5.0. Also, the “Ratio (BoneTRAP)” value in test [2] (setting [5]) worked out at 10. Moreover, the “Ratio (BacTRAP)” value in test [3] (setting [6]) is listed as 2.8.
